We go through nine compounds from ChEMBL document CHEMBL1151873, “Protein tyrosine phosphatase 1B inhibitory effects of depsidone and pseudodepsidone metabolites from the Antarctic lichen Stereocaulon alpinum” (Bioorg Med Chem Lett, 2009).

The target in experiment [1] is T1, Tyrosine-protein phosphatase non-receptor type 1 (Homo sapiens, UniProt P18031).
T1 sequence (P18031 whole entry): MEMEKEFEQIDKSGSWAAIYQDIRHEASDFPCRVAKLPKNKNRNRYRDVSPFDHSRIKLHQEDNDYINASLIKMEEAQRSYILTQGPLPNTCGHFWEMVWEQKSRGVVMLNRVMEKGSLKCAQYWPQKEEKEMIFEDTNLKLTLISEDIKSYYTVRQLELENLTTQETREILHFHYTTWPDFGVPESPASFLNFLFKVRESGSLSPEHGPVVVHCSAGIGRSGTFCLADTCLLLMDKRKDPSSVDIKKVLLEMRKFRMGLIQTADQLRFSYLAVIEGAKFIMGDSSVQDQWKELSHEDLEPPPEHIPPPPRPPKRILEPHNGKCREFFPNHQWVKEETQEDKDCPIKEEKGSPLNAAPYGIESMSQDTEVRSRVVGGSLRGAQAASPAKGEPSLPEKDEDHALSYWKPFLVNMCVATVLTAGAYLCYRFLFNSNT
The experiment in a line: (§1) Inhibition of PTP1B.

Experiment [2] addresses T2, Tyrosine-protein phosphatase non-receptor type 1 (Homo sapiens) (UniProt P18031).
T2 sequence (whole entry): T1 sequence (P18031 whole entry)
Described as §1.

Experiment [3] addresses T2, Tyrosine-protein phosphatase non-receptor type 1 (Homo sapiens). The experiment in a line: Non competitive inhibition of PTP1B assessed as inhibition of substrate catalysis by Lineweaver-Burke plot.

Calls of active or inactive are those of the source. No cut-off for these calls is given here. Some results are limits rather than exact numbers.

`COc1cc(O)c(C(C)=O)c(O)c1C` registered an IC50 in experiment [1] of more than 200 µM.
On the same count and under the same terms, the result for `CCCCCc1c2c(cc(O)c1C(=O)OC)OC(=O)c1c(cc(OC)cc1C(=O)CCCC)O2` reads 3.02 µM.
In turn, `COC(=O)c1c(C)cc(OC(=O)c2c(C)cc(O)c(C=O)c2O)c(C)c1O` [ATRANORIN] showed an IC50 in experiment [1] of 63.5 µM.
`CCCCCc1c2c(cc(OC)c1C(=O)OC)OC(=O)c1c(cc(OC)cc1C(=O)CCCC)O2` came in with an IC50 in experiment [1] of 7.42 µM.
Turning to `CCCCCc1c(Oc2cc(OC)cc3c2C(=O)OC3(CCCC)OC)c(O)cc(O)c1C(=O)O` (stereo not drawn), the Activity result in experiment [2] was “Dose-dependent effect”. The same compound came in with an IC50 in experiment [1] of 2.48 µM.
As for `COC(=O)c1c(C)cc(O)cc1O` [METHYL ORSELLINATE], the IC50 in experiment [1] is more than 200 µM.
On the same count and under the same terms, the result for `COC(=O)c1c(C)cc(O)c(C=O)c1O` [METHYL HAEMATOMMATE] reads more than 200 µM.
For the compound `CCCCCc1c2c(cc(O)c1C(=O)O)OC(=O)c1c(cc(OC)cc1C(=O)CCCC)O2`, the outcome in experiment [3] was Active. Besides, in experiment [2], the Activity result was “Dose-dependent effect”.
With `CCCCCc1cc(O)cc(O)c1Oc1cc(OC)cc2c1C(=O)OC2(CCCC)OC` (stereo not drawn), the outcome in experiment [3] was Active. The Activity result in experiment [2] was “Dose-dependent effect”. In experiment [1], the IC50 turned out to be 6.86 µM.
